Measured values published in PMC5615103 (Toxicology Reports, 2017).
“Also recorded” adds a separate entry of the source. Like-named read-outs stand apart in the source and are kept apart here. Marks after values point to notes of the source that are not given here.

Experiments:
[1] = cited from earlier work; for DILI classification (b) positive or negative for DILI: ref Xu et al. [33]; for iDILI/non-iDILI: selected by literature research, ref [30], [4], [8], [31], [32]; for DILI classification (a) LTKB class: Liver Toxicity Knowledge Base, ref Chen et al. [34]; for FDA status: FDA-approved labels, ref DailyMed
HepG2 cells [2] = assay: HepG2 viability; format: cell-based, human; conditions: 3-5 × 10^5 THP-1 monocytes, no stimulus; same concentrations
[3] = average plasma maximum concentration; format: in vivo, humans; conditions: human
[4] = WST-1 dose-response cytotoxicity in THP-1 monocytes; format: cell-based, human; conditions: human, THP-1 monocytes
HepG2 cells [5] = assay: HepG2 viability; format: cell-based, human; conditions: 1 μg/mL LPS, 48 h; for enhanced cell death in HepG2 cells on co-exposure with LPS: mono- and co-cultures with THP-1 monocytes, 25 μM TVX/LVX, 20 μM KC/FC; for synergy with LPS in co-culture with THP-1 monocytes: co-culture HepG2 + THP-1 monocytes
HepG2 cells [6] = assay: WST-1 dose-response cytotoxicity in HepG2 monoculture; format: cell-based, human; conditions: for EC80 (concentration at which 80% of the cells are still viable) / EC50: HepG2, 24 h; for EC80 (concentration at which 80% of the cells are still viable): WST-1; for EC50: Homo sapiens
[7] = as above; format: cell-based, human; conditions: human, HepG2 cells (monoculture)
HepG2 cells [8] = assay: HepG2 viability; format: cell-based, human; conditions: 10 ng/mL TNF, 24 h; for synergistic effect (enhanced cellular death) on co-exposure with TNF: HepG2 monoculture, 32 μM TGZ/RGZ, 25 μM TVX/LVX, 125 μM DcL/ASS, 20 μM KC/FC; for change of the TNF-dependent synergistic effect by addition of THP-1 monocytes: co-culture HepG2 + THP-1 monocytes
THP-1 monocytes = assay: WST-1 dose-response cytotoxicity in THP-1 monocytes; format: cell-based, human; conditions: for EC50: Homo sapiens, THP-1, 24 h; for EC80 (concentration at which 80% of the cells are still viable): THP-1 monocytes, 24 h, WST-1
HepG2 cells [9] = assay: HepG2 monoculture, increasing drug concentrations with or without TNF, WST-1; format: cell-based, human; conditions: 24 h; for TNF-dependent synergistic effect at increasing drug concentrations: with vs without 10 ng/mL TNF
HepG2 cells [10] = assay: Morphology of HepG2 cell cultures; format: cell-based, human; conditions: 24 h; for alterations in the morphology of HepG2 cell cultures: 25 μM TVX or 125 μM DcL + 10 ng/mL TNF
[11] = human plasma, cited from earlier work

Structure (SMILES) | DILI classification (b) positive or negative for DILI [1] | iDILI/non-iDILI [1] | influence of higher THP-1 monocyte number on the effect in co-culture (HepG2 cells [2]) | Cmax [3] [µM] | enhanced cell death in HepG2 cells on co-exposure with LPS (HepG2 cells [5]) | DILI classification (a) LTKB class [1] | FDA status [1] | EC80 (concentration at which 80% of the cells are still viable) (HepG2 cells [6]) [µM] | EC50 (HepG2 cells [6]) [µM] | synergistic effect (enhanced cellular death) on co-exposure with TNF (HepG2 cells [8]) | EC50 (THP-1 monocytes) [µM] | EC80 (concentration at which 80% of the cells are still viable) (THP-1 monocytes) [µM] | also measured
CN(CCOc1ccc(CC2SC(=O)NC2=O)cc1)c1ccccn1 (centres unmarked) [RGZ, Rosiglitazone] | negative | Non-iDILI | only negligible effects | 104 |  |  |  |  |  |  |  |  | cytotoxicity at 24 h, 32 µM [4]: 10%
OC(Cn1cncn1)(Cn1cncn1)c1ccc(F)cc1F [FC, Fluconazole] | positive |  |  | 882 | did not show any relevant effects | Most DILI-concern |  |  |  |  |  |  | 
Cc1c(C)c2c(c(C)c1O)CCC(C)(COc1ccc(CC3SC(=O)NC3=O)cc1)O2 (centres unmarked) [TGZ, Troglitazone] | positive | iDILI | enhanced at higher THP-1 cell numbers | 639 |  | Most DILI-concern | WDN | 34 | 40 | synergy | 42 | 27 | viability at 24 h, 32 μM [7]: ~85%; viability at 24 h, 32 μM [4]: ~70%
C[C@H]1COc2c(N3CCN(C)CC3)c(F)cc3c(=O)c(C(=O)O)cn1c23 [LVX, Levofloxacin] | negative |  |  | 1580 | did not show any relevant effects |  |  |  |  |  |  |  | 
O=C(O)Cc1ccccc1Nc1c(Cl)cccc1Cl [DcL, Diclofenac] | positive |  | enhanced by higher numbers of immune cells | 744 |  | Most DILI-concern |  | 604 | 775 | stronger than in the case of TGZ and KC | 76 | 30 | doses necessary to elicit enhanced toxicities (onset of synergy with TNF) (HepG2 cells [9]; 10 ng/mL TNF): > 50 µM; synergistic effect when co-exposed with TNF (HepG2 cells [9]; drug 50 μM, 10 ng/mL TNF): not able to induce a synergistic effect; TNF-dependent synergistic effect at increasing drug concentrations (HepG2 cells [9]): stronger than those of TGZ and KC; cytotoxicity / metabolic activity at the used concentration (HepG2 cells [6]; HepG2, same concentration as in co-culture experiments, 24 h): no cytotoxicity; also recorded: not affected; viability at 24 h, 125 μM [7]: ~100%; alterations in the morphology of HepG2 cell cultures (HepG2 cells [10]): pronounced hepatocellular injury; morphology of HepG2 cells (HepG2 cells [10]; selected concentration (125 μM), drug alone): morphological changes; change of the TNF-dependent synergistic effect by addition of THP-1 monocytes (HepG2 cells [8]): compensated in the co-culture system; viability at 24 h, 125 μM [4]: ~30%
CC(=O)Oc1ccccc1C(=O)O [ASS, Acetylsalicylic acid] | negative | Non-iDILI |  | 552 |  |  |  |  |  |  |  |  | Cmax ([11]; commonly recommended therapeutic doses, ref Xu et al. [33]): 1.00 µg/mL
CC(=O)N1CCN(c2ccc(OCC3COC(Cn4ccnc4)(c4ccc(Cl)cc4Cl)O3)cc2)CC1 (centres unmarked) [KC, Ketoconazole] |  | iDILI | enhanced by higher numbers of immune cells | 794 | significantly enhanced cell death | Most DILI-concern | BBW | 18 | 24 |  | 12 | 7 | synergy with LPS in co-culture with THP-1 monocytes (HepG2 cells [5]): showed a synergy only in the presence of both; Cmax ([11]; ref Huang et al. [35]): 4.22** μg/mL; viability at 24 h, 20 μM [7]: ~80%; change of the TNF-dependent synergistic effect by addition of THP-1 monocytes (HepG2 cells [8]): compensated in the co-culture system; viability at 24 h, 20 μM [4]: ~20%
N[C@@H]1[C@H]2CN(c3nc4c(cc3F)c(=O)c(C(=O)O)cn4-c3ccc(F)cc3F)C[C@@H]12 [TVX, Trovafloxacin] |  | iDILI |  | 408 | significantly enhanced cell death |  | WDN | 100 | 370 | stronger than in the case of TGZ and KC | 60 | 23 | synergy with LPS in the HepG2 monoculture (HepG2 cells [5]; HepG2 monoculture): showed a synergy; synergy with LPS in co-culture with THP-1 monocytes (HepG2 cells [5]): not intensified by immune cells; TNF-dependent synergistic effect at increasing drug concentrations (HepG2 cells [9]): dose-dependently increased; viability at 24 h, 25 μM [7]: ~92%; alterations in the morphology of HepG2 cell cultures (HepG2 cells [10]): pronounced hepatocellular injury; viability at 24 h, 25 μM [4]: ~76%
